This passage reports IC50 results from patent US20250228854A1, “HETEROCYCLIC SUBSTITUTED PYRIMIDOPYRAN COMPOUNDS AND THEIR APPLICATIONS” (priority 2023, published 2025).

The structures appear in SMILES notation. Counter-ions that a name gives are not always drawn.

Assay [1] relates to p-ERK of KRAS^G12D mutant AsPC-1 cells. The experiment in a line: AsPC-1 cell p-ERK inhibition test (HTRF), Experimental Example 1. In kind it is cell-based. As to conditions: Homo sapiens, ASPC1, 3 hours compound incubation. Here is the method: Experimental Example 1. AsPC-1 Cell p-ERK Inhibition Test
The inhibitory activity of the compound on p-ERK levels of KRAS^G12D-mutant pancreatic cancer AsPC-1 cells was assessed by HTRF.
ASPC-1 cells were purchased from ATCC; RPMI-1640 medium was purchased from Gibco; Fetal Bovine Serum was purchased from Hyclone; Advanced Phospho-ERK1/2 (THR202/TYR204) KIT was purchased from Bioauxilium—
ASPC-1 cells were seeded in a 384-well cell culture plate with a white bottom, 8 μL of cell suspension per well, containing 7,500 cells per well, and the cell plates were placed in a carbon dioxide incubator and incubated at 37° C. overnight;
The test compound was diluted to 3 mM with 100% DMSO as the first concentration, and then diluted to ten concentrations of 3000, 1000, 300, 100, 30, 10, 3, 1, 0.3, 0.1 μM with a pipette. Take 2 μL of compound and add 198 μL of cell starvation medium. After mixing well, take 15 μL of compound solution and add 35 μL of cell starvation medium and mix well. Then add 4 μL of compound solution in each well to the corresponding cell plate well. Place the cell plate back in the carbon dioxide incubator for continued incubation for 3 hours. At this time, the compound concentration is 3,000, 1,000, 300, 100, 30, 10, 3, 1, 0.3, 0.1 nM. […]
After the end of incubation, use a multi-label analyzer to read HTRF excitation: 320 nm, emission: 615 nm, 665 nm; […]

For assay [2], the system named is p-ERK in AsPC-1 cells (KRAS^G12D mutation, pancreatic cancer). Nature of the assay: AsPC-1 cell p-ERK inhibition test, Experimental Example 2. As to conditions: Homo sapiens, ASPC1, read-out: AsPC-1 p-ERK IC50 (nM).
Procedure: 1640 medium, penicillin/streptomycin antibiotics were purchased from Gibco, and fetal bovine serum was purchased from Biosera. CellTiter-Glo (Cell Viability Chemiluminescence Detection Reagent) reagent was purchased from Promega. AsPC-1 cell line was purchased from ATCC, Envision Multi-Tag Analyzer (PerkinElmer).
AsPC-1 (KRAS^G12D mutation, pancreatic cancer) cells were seeded in ultra-low adsorption 96-well blackwall plate, 80 μL cell suspension per well, containing 10,000 AsPC-1 cell lines from ATCC cells. Plates were incubated overnight in a carbon dioxide incubator.
The test compound was diluted 8 concentrations with a 5-fold drain, i.e., from 2 mM to 25.6 nM, and a double replicate well experiment was set up. Add 78 μL of culture medium to the intermediate plate, and transfer 2 μL of gradient diluted compound per well to the intermediate plate according to the corresponding positions. Mix well and transfer 20 μL of each well to the cell plate. […] Another cell plate was prepared, and the signal value was read as the maximum value (Max value in the equation below) on the day of dosing to participate in the data analysis.
Each 100 μL of cell viability chemiluminescence detection reagent was added to the cell plate and incubated at room temperature for 30 minutes to stabilize the luminescence signal. Use multi-label analyzer for reading. […]

Regarding `C=C1CN2CCC[C@@]2(COc2nc3c(c(N4CC5CCC(CO)(C4)N5)n2)CO[C@H](c2c(F)c(N)cc(C#CC)c2C(F)(F)F)C3)C1` (some centres unmarked) [Hydrochloride of Compound 1], in assay [1], half-maximal inhibition (IC50) required 164 nM.

On to `C=C1CN2CCC[C@@]2(COc2nc3c(c(N4CC5CCC(C4)N5)n2)CO[C@H](c2c(F)c(N)cc(C#CCl)c2C(F)(F)F)C3)C1` [Trifluoroacetate of Compound 7], for which, in assay [2], the IC50 was found to be 24.9 nM.

In general, IC50 refers to the concentration needed to halve the response being measured.
